The target of experiment [1] is Human HDAC1 (Homo sapiens, UniProt Q13547). The experiment can be described thus: In vitro HDAC inhibition assay, HDAC1. The conditions noted are these: read-out: HDAC isoform IC50, HDAC1; NI = No inhibition at a concentration of 50 pM (footnote b).
Experiment [2] concerns the target HDAC3/NcoR2 complex (Homo sapiens, UniProt O15379). The experiment can be described thus: In vitro HDAC inhibition assay, HDAC3. Format: biochemical. The conditions noted are these: NI = No inhibition at a concentration of 50 pM (footnote b); read-out: HDAC isoform IC50, HDAC3.
Experiment [3] has as its target T1, HDAC10 (Homo sapiens, UniProt Q969S8).
T1 sequence (Q969S8 1-669): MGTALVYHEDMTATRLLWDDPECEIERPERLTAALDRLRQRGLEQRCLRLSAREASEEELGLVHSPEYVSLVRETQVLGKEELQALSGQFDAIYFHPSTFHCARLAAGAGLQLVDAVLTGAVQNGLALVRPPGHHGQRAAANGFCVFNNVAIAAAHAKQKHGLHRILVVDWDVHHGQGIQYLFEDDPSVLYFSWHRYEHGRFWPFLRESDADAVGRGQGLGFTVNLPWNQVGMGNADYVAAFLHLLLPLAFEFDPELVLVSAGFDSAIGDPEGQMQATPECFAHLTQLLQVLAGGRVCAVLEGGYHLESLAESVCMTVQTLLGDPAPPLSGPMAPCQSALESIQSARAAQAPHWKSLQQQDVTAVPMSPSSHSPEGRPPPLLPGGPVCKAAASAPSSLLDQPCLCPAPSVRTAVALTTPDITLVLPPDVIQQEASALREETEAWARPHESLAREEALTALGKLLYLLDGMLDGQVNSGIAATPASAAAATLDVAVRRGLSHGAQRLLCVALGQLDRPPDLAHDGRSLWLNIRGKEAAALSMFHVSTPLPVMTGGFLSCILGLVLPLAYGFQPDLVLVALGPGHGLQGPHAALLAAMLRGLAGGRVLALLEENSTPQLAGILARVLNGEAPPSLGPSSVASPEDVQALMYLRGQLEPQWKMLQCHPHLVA
Put plainly: In vitro HDAC inhibition assay, HDAC10. In kind it is biochemical. The conditions noted are these: NI = No inhibition at a concentration of 50 pM (footnote b); read-out: HDAC isoform IC50, HDAC10.

The subject of experiment [4] is BxPC3. The experiment can be described thus: In vitro growth inhibition (GI), MTS cell proliferation assay (Table 5), BxPC3. In kind it is cell-based. The conditions noted are these: Homo sapiens, BXPC-3, 72 hours post-treatment. Background: Formazan colour is commonly taken as a measure of viable cells.
Experiment [5] relates to PANC1. The experiment can be described thus: In vitro growth inhibition of pancreatic cancer cell lines (Table 3), PANC1. Format: cell-based. The conditions noted are these: Homo sapiens, PANC-1; 72 hours post-treatment, cell viability. The method, then: (§1) In Vitro growth inhibition of pancreatic cancer cell lines. Four of the present HDACIs were analyzed in the [3-(4,5-dimethylthiazol-2-yl)]-2,5-diphenyltetrazolium bromide (MTT) assay in four pancreatic cancer cell lines (Table 3).

Experiment [6] relates to L3.6pl. The experiment can be described thus: In vitro growth inhibition (GI), MTS cell proliferation assay (Table 5), L3.6pl. Format: cell-based. As to conditions: Homo sapiens, 72 hours post-treatment.
In experiment [7] the target is HDAC2 (Homo sapiens, UniProt Q92769). Put plainly: In vitro HDAC inhibition assay, HDAC2. In kind it is biochemical. As to conditions: NI = No inhibition at a concentration of 50 pM (footnote b); read-out: HDAC isoform IC50, HDAC2.
HDAC2, sequence (Q92769 whole entry, canonical isoform): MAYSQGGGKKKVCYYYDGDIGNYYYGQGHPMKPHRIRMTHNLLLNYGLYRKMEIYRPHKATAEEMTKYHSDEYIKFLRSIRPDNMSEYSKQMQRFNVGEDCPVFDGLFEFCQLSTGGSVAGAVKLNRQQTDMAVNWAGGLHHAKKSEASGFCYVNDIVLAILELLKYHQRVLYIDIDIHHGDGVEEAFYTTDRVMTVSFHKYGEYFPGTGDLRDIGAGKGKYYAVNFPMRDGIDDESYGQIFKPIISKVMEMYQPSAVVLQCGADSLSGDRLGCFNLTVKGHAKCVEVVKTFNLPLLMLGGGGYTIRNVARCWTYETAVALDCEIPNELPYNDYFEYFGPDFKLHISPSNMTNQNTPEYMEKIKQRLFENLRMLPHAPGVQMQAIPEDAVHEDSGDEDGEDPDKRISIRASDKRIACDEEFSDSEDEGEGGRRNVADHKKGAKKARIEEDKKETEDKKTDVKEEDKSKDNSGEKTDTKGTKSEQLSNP
The subject of experiment [8] is Mia PaCa-2. The experiment can be described thus: In vitro growth inhibition of pancreatic cancer cell lines (Table 3), Mia PaCa-2. In kind it is cell-based. As to conditions: Homo sapiens, 72 hours post-treatment, cell viability. The method, then:
as §1

The subject of experiment [9] is Panc 04.03. The experiment can be described thus: In vitro growth inhibition of pancreatic cancer cell lines (Table 3), Panc 04.03. Format: cell-based. The conditions noted are these: Homo sapiens, 72 hours post-treatment, cell viability. As for the experimental part:
as §1

Experiment [10] concerns BxPC-3. Put plainly: In vitro growth inhibition of pancreatic cancer cell lines (Table 3), BxPC-3. Format: cell-based. The conditions noted are these: Homo sapiens, 72 hours post-treatment, cell viability. The method, then: as §1
Experiment [11] deals with T2, Human HDAC6 (Homo sapiens, UniProt Q9UBN7).
T2 construct: Full length with N-terminal GST tag, MW=159 kDa; GST (N); host or cells: baculovirus expression system, Sf9 cells
T2 sequence (Q9UBN7 1-1215): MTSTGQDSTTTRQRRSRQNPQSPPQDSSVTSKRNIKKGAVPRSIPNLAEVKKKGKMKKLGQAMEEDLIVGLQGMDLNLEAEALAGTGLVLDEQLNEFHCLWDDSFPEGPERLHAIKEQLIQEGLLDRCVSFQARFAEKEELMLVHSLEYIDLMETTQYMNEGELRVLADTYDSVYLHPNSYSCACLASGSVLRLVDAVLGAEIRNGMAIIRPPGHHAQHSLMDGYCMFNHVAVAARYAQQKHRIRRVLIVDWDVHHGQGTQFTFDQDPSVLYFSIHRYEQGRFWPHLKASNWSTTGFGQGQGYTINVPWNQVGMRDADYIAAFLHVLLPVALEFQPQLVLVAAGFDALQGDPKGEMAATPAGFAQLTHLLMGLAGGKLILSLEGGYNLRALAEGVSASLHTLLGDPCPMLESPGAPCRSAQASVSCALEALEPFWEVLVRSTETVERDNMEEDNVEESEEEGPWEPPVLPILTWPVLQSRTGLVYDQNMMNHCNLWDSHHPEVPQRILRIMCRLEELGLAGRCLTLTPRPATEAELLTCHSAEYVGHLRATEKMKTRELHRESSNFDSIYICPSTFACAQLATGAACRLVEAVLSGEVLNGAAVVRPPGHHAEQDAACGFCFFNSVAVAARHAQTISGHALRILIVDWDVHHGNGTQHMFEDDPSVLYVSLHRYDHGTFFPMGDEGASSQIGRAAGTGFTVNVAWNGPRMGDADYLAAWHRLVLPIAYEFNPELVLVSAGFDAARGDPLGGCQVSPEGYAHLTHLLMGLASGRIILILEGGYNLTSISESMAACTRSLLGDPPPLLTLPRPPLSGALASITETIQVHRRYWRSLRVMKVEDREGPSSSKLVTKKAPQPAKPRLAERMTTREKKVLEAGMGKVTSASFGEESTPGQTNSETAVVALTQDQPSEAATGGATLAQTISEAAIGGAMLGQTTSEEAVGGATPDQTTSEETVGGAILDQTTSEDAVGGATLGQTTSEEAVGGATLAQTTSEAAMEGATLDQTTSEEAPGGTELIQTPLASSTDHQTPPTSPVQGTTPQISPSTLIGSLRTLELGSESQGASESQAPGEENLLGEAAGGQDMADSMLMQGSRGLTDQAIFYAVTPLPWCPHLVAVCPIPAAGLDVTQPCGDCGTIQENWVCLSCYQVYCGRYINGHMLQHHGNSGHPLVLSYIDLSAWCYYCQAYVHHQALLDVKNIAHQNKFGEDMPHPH
The experiment can be described thus: In vitro HDAC inhibition assay, HDAC6. The conditions noted are these: read-out: HDAC isoform IC50, HDAC6. Format: biochemical.

In experiment [12] the test system is L3.6pl pancreatic cancer cells. Put plainly: Apoptosis by Hoechst staining and PARP cleavage. In kind it is cell-based. As to conditions: 10 μM, 24 hours after the initiation of treatment. The method, then: FIG. 3 contains photographs and Western immunoblots showing that HDAC inhibitors of present invention induce apoptosis on L3.6p1 pancreatic cancer cells. L3.6p1 pancreatic cancer cells were treated with 10 μM of compound 1, 2 or 4 for 24 hrs as indicated. Cells were collected and processed to Hoechst staining (upper panel) and cell lysates were prepared for Western immunoblotting (lower panel). 50 μg of proteins were separated by SDS-PAGE, transferred to PVDF membrane, and immunoblotted as indicated.

pIC50: −log10 of the molar value.

HDAC3/NcoR2 complex, sequence (O15379 whole entry, canonical isoform): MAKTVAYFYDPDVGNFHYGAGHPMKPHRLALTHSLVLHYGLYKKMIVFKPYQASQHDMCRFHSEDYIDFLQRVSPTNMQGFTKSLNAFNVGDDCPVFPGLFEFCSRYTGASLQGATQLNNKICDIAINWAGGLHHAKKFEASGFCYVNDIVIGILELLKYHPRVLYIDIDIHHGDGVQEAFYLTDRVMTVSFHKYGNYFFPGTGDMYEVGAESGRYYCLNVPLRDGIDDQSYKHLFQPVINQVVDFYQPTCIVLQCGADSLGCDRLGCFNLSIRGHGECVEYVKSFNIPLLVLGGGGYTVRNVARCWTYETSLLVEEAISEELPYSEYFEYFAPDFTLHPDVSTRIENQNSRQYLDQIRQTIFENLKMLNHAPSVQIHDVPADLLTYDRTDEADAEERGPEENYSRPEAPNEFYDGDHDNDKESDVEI
HDAC3/NcoR2 complex, sequence (Q9Y618 395-489 partner limits assumed): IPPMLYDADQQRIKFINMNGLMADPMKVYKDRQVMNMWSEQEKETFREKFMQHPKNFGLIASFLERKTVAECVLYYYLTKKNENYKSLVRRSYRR
Human HDAC1, sequence (Q13547 whole entry, canonical isoform): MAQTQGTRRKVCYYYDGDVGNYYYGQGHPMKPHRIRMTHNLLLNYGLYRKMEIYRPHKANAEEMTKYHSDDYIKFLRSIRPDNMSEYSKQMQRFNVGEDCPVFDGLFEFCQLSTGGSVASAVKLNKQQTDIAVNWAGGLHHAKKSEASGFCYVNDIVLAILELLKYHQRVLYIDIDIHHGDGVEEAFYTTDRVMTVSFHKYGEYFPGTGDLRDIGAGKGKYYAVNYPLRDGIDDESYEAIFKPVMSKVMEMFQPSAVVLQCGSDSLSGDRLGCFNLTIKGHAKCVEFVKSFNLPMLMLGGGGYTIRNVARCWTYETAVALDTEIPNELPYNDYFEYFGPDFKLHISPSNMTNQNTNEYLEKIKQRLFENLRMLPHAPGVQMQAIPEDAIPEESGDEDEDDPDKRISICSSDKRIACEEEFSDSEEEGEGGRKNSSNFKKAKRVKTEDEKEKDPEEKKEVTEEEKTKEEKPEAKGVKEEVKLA

Consider `O=C(CCCc1cc(C(=O)NO)no1)Nc1nc(-c2ccccc2)cs1` [Compound 2, 5-[3-(4-Phenyl-thiazol-2-ylcarbamoyl)-propyl]-isoxazole-3-carboxylic acid hydroxyamide], for which the pIC50 (usually the negative decadic logarithm of the IC50, by convention in mol/L) in [1] is 6.45; in experiment [2], 6.03; in experiment [3] it was 6.07; in [5], 5.60; in experiment [7] it was 5.91; in experiment [8], 5.89. Besides, the figures for the negative logarithm of the IC50 (pIC50) in experiment [9], in experiment [10] and in experiment [11] were 4.32, 4.68 and 7.09, respectively. The GI50 (usually the concentration at which growth is held to half of that of the control) in experiment [4] amounted to 2300 nM; in experiment [6] it was 700 nM. In addition, the “Induction of apoptosis (Hoechst staining and PARP cleavage)” value in experiment [12] is given as “effectively induced apoptosis”.
In the case of `CCOC(=O)Nc1ccc(-c2csc(NC(=O)CCCc3cc(C(=O)NO)no3)n2)cc1` [Compound 4, (4-{2-[4-(3-Hydroxycarbamoyl-isoxazol-5-yl)-butyrylamino]-thiazol-4-yl}-phenyl)-carbamic acid ethyl ester], the pIC50 in experiment [1] was 6.70; in [2], 6.45; in [3] it was 6.49; in experiment [5] it was 4.96; in experiment [7], 6.08; in experiment [8] it was 5.72. Moreover, the figures for the pIC50 in experiment [9], in experiment [10] and in experiment [11] were 4.87, 4.82 and 7.31, respectively. In addition, the 50% growth inhibitory concentration (GI50) in [4] and in experiment [6] was 1700 nM in each case. Also, the “Induction of apoptosis (Hoechst staining and PARP cleavage)” value in experiment [12] is “effectively induced apoptosis”.

These data come from patent publication US11739064B2, “HDAC inhibitors and therapeutic methods using the same” (THE BOARD OF TRUSTEES OF THE UNIVERSITY OF ILLINOIS, priority 2015, dated 2023).
